{
  "source": "patent US20160015893A1",
  "about": "“DIRECT PRESSURE-MEDIATED INTRA-BONE DELIVERY SYSTEM FOR CELLULAR THERAPEUTICS” (The United States of America, as represented by the …, priority 2013, published 2016)",
  "key": {"[1]": {"assay": "PET/CT in vivo distribution of radioactivity after IV, IB or intra-arterial administration in swine", "set-up": "species or system domestic swine (Sus scrofa domesticus)", "method": "Animals were heparinzed to an ACT of 300 seconds or greater and were started with deferoxamine IV infusion (5 mg/kg/hr) to chelate any free ^89Zr that may potentially be released from fragmented cells. PET scans were performed using a Gemini TF clinical PET/CT scanner (Philips Medical Systems, Andover, Mass.). Following injection, animals were imaged in 3-dimensional (3D) time-of-flight mode with a spatial resolution of 4.8 mm at the center of the field of view. The images were reconstructed using the default row-action maximum-likelihood algorithm iterative reconstruction, with standard corrections for random, scatter, attenuation, and normalization. Three volumes of interest (VOI) were manually drawn within the swine PET/CT scans. One VOI enclosing the intra-pelvic bone volume near the injection site, another VOI enclosing the extra-pelvic bone volume and the last VOI for the lung volume. The sum of measured activities of the three volumes equals the total injected radioactivity into the swine. Thus, the percent-injected dose (% ID) within each VOI was estimated by dividing each VOI by the sum of the three VOIs and multiplying by 100. The percent-injected dose for each of the three regions is reported herein."}, "[2]": {"assay": "CT imaging of IB contrast injection (marrow flow, venous drainage, leakage)", "type": "in vivo, domestic swine (Sus scrofa domesticus)", "method": "To evaluate flow through the bone marrow cavity, abdominal vessels were identified using iopamidol-370 contrast injected into the distal abdominal aorta via a 5Fr Glidecath (Terumo Medical Corporation, Somerset, N.J.) inserted in the internal carotid artery. To evaluate the anatomy of the veins, iopamidol-370 contrast was injected IB under anesthesia (boluses of 5 or 10 ml at rates of 0.1 to 2.5 ml/s) while scanning with 320-row detector CT (Aquilion ONE™, Toshiba Medical, Japan). Pulmonary artery, carotid artery and intra-marrow pressures were monitored and recorded continuously both during and after injection of contrast media. In select animals, vascular occluders (In Vivo Metric, Healdsburg, Calif.) were placed around the terminal branches of the abdominal aorta to selectively control flow through the internal or external iliac arteries, and around the iliac veins to control venous drainage from the pelvis. […]\nTo evaluate flow through the marrow and venous drainage, direct intra-bone injection into the hemipelvis with iopamidol-370 contrast was performed under anesthesia with dynamic CT images acquired using a 320-detector row scanner (Aquilion One, Toshiba Medical, Japan). Human CD34+ and swine BM MNCs were labeled with Zirconium-89 (^89Zr), and were then assessed for viability, cell number, and the level of cellular radioactivity."}, "[3]": {"settings": "Control group, IB injection without cells, pig 32590, after the first hour"}},
  "data": [
    {"compound": "^89Zr-deferoxamine [^89Zr-Df]", "values": [
      {"measurement": "Extra-pelvic bone VOI (Max)", "setting": "[1]; [3]", "result": 91.45},
      {"measurement": "Extra-pelvic bone VOI (Mean)", "setting": "[1]; [3]", "result": 15.32},
      {"measurement": "Intra-pelvic bone % ID", "setting": "[1]; [3]", "result": 33.5, "unit": "% ID"},
      {"measurement": "Intra-pelvic bone VOI (Max)", "setting": "[1]; [3]", "result": 338.9},
      {"measurement": "Intra-pelvic bone VOI (Mean)", "setting": "[1]; [3]", "result": 314.42},
      {"measurement": "Intra-pelvic bone total radioactivity", "setting": "[1]; [3]", "result": 1085.85, "unit": "counts"},
      {"measurement": "Lung % ID", "setting": "[1]; [3]", "result": 0.0, "unit": "% ID"},
      {"measurement": "Lung VOI (Mean)", "setting": "[1]; [3]", "result": 0},
      {"measurement": "Lung total radioactivity", "setting": "[1]; [3]", "result": 0, "unit": "counts"},
      {"measurement": "Intra-pelvic bone % ID", "setting": "[1]; Control group, IB injection without cells, pig 32590, after the first hour, listed as 89Zr—Df", "result": 33.5, "unit": "% ID"},
      {"measurement": "Location of radioactivity, fusion PET/CT", "setting": "[1]; IB injection without cells, 1 hr", "result": "radioactivity in the renal pelvises and bladder"},
      {"measurement": "Radioactivity within the renal collecting system, ureters and bladder", "setting": "[1]; IB injection without cells, first hour", "result": 66.5, "unit": "% ID"},
      {"measurement": "Excretion of radioactivity", "setting": "[1]; IV injection without cells", "result": "rapid renal excretion"},
      {"measurement": "Retention in the lungs", "setting": "[1]; IV or IB administration without cells, first hour", "result": "no retention"}
    ]},
    {"compound": "C[C@H](O)C(=O)Nc1c(I)c(C(=O)NC(CO)CO)c(I)c(C(=O)NC(CO)CO)c1I", "note": "[iopamidol-370 contrast, iopamidol-370]", "values": [
      {"measurement": "Contrast distribution on CT", "setting": "[2]; IB injection at rates exceeding 0.2 ml/s, volumes >10 ml, or by hand", "result": "extrabone contrast leakage at the site of injection"},
      {"measurement": "Contrast distribution on dynamic CT", "setting": "[2]; manual sequential hand intra-bone injection of 5 ml aliquots at two sites in the ipsilateral iliac crest", "result": "leakage from the initial access site after the first injection as well as immediate drainage into the ipsilateral iliac vein"}
    ]}
  ]
}
